From US20120129953A1, “TINGLING AND SALIVATING COMPOSITIONS” (FIRMENICH SA, priority 2006, published 2012)

Assay: Blind test panel evaluation of sugar-free hard-boiled candies by trained evaluators
Assay type: in vivo
Settings: hard-boiled candy
Description: The composition above was then used to prepare sugar-free hard-boiled candies, as follows: Isomalt (100 g) and water (30 g) were mixed and heated to 160° C. in a copper pan. At 160° C., the copper pan was removed from the heat and placed in a warm water bath (40° C.). When the temperature reached 135° C., aspartame, acesulfame-K, the liquid acidulant mixture (1.0%) and flavor were added. The cooked mass was poured at ambient temperature into appropriate Teflon® molds.
The following Table I summarizes the ingredients and respective dosages used in the preparation as described here above of a control hard-boiled candy according to the prior art and containing only citric acid as acidulant and a candy prepared according to the invention.
The Control candy and the Invention Candy were then evaluated by a panel of trained evaluators, on a blind test, and the results of this evaluation are shown in FIG. 1.

Q: For `O=C(O)CC(O)(CC(=O)O)C(=O)O` [Citric acid], which impact and sourness is on record?
A: deliver the expected effect
